Results reported in article PMC2196313 (The Journal of Experimental Medicine, 1997).

Assays:
CTL clone E8 [1] = type: cell-based, mouse (C57BL/6)
CTL clone E8 [2] = type: cell-based, mouse (C57BL/6); remark: listed apart in the source
TCR of CTL clone G9a = type: cell-based, mouse (C57BL/6)
CTL clone 4G3 = type: cell-based, mouse
CTL clone B3 = conditions: cited from earlier work

With SIIR FEK ^* L [O7(N4R)] the “inhibition of specific target cell lysis by clone E8” value (CTL clone E8 [1]) was “no effect within the concentration range tested”, the “cold target inhibition of lysis by clone E8” value (CTL clone E8 [2]) was “indistinguishable from RMA cells without added peptide” and the “inhibition of agonist-induced loss of surface TCR on clone G9a” value (TCR of CTL clone G9a) was “had no effect”.
In the case of SIIG FEK ^* L [O7(N4G)], the “inhibition of specific target cell lysis by clone E8” value (CTL clone E8 [1]) is listed as “comparatively poor inhibitors”, the “inhibition of specific target cell lysis by clone 4G3” value (CTL clone 4G3) is listed as “most sensitive” and the “antagonism for clone B3” value (CTL clone B3) is listed as “potent antagonist”.
